What was measured:
[1] = cited from earlier work
[2] = Preliminary patient trial: s.c./i.v. infusion versus intestinal Duodopa, plasma levodopa and carbidopa; format: in vivo, patients with Parkinson's disease
Source text: The trial results are from 3 randomly selected patients of a larger study, and for each patient subcutaneous, intravenous injection and intestinal administration was compared.
The study was a prospective, randomized, 3-period cross-over, open-label multicentre trial comparing intravenous and subcutaneous infusion of the preferred aqueous pharmaceutical solution with intestinal Duodopa (LCIG) performed according to the principles of Good Clinical Practice (GCP). The trial included patients with Parkinson's disease who are on Duodopa treatment because of severe on-off manifestation when on oral levodopa. During one treatment visit, patients receive Duodopa at optimal dosage for 16 hours, during another treatment visit, the patients received an i.v. infusion of the preferred aqueous pharmaceutical solution at a concentration estimated to yield corresponding serum levels of levodopa for the same duration, and at a third treatment visit the patients received the corresponding amount of levodopa but in the form of s.c. infusion. Blood samples were drawn according to a set schedule during the treatment visits for up to 24 h. […]
Levodopa and carbidopa in patient's plasma was analysed by ultra-performance liquid chromatography-tandem mass spectrometry (UPLC-MS/MS) according to the principles of Good Laboratory Practice (GLP).

N[C@@H](Cc1ccc(O)c(O)c1)C(=O)O [levodopa]
concentration above which levodopa precipitates ([1]; pH values acceptable for continuous parenteral administration): 500 to 1000 µg/mL
levodopa concentration obtainable ([1]; pH<3 or pH>9): exceeding 5 mg/ml
levodopa concentration in the blood required for therapeutic effect ([2]; patient no 101, severe PD): 5,000-6,000 ng/mL
levodopa concentration in the blood required for therapeutic effect ([2]; patient no 103, moderate or mild PD): 1,600-1,700 ng/mL

From patent publication US12048764B2, “Levodopa infusion solution” (DIZLIN PHARMACEUTICALS AB, priority 2017, dated 2024)
